Data: publication PMC11435625, “In Vitro Hepatic Clearance Evaluations of Per- and Polyfluoroalkyl Substances (PFAS) across Multiple Structural Categories” (Toxics, 2024)

Legend:
[1] = system: pooled primary human hepatocyte suspensions; assay: Hepatic clearance assay (substrate depletion, LC-MS); conditions: in µL/min/10^6 cells; for CLint for HTTK: CLint value carried into HTTK/IVIVE; for in vitro CLint exp assay / Unadj Clint: pooled primary human hepatocyte suspensions; for Unadj Clint: unadjusted hepatic intrinsic clearance, Table S4
In short: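 Substrate depletion at 1 μM PFAS in pooled cryopreserved human hepatocytes (~0.5 × 10^6 viable cells/mL, 50-donor pool), 37 °C with shaking, sampled 0–240 min in triplicate. Quantified by LC-MS in negative ion mode against matrix-matched calibration; media-only or heat-inactivated cells as nonmetabolic-loss controls.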

[2] = IVIVE: steady-state concentration (Css), generic HTTK model; parameters: species or system human; conditions: for Css (mg/L) / Css (uM): Assuming 1 mg/kg/day dose rate, BW 70 kg; for CLhep: QL 1500000 uL/min; for Fub: fub=fup/(B:P), Fub set to 1 if needed; for CLint: scaled to whole liver: HPGL 110 mill cells/g, Vl 1596 g
In short: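 Human Css estimated by IVIVE: plasma protein binding converted to blood fraction unbound via blood-to-plasma partitioning, and experimental Clint scaled with liver scalars to whole liver clearance. AEDs then derived by reverse dosimetry from Css and PFAS in vitro POD, defined as fifth-percentile AC50.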

plasma protein = conditions: fraction unbound in plasma, input for IVIVE calculations; cited from earlier work
[3] = system: pooled primary human hepatocyte suspensions; assay: Bayesian (MCMC, invitroTKstats) analysis of hepatic clearance data; conditions: Level-4 Bayesian estimate, posterior median; Clint.1 series (Clint.10 all NA)
Text: Markov Chain Monte Carlo was employed in a Bayesian analysis to estimate uncertainty of the hepatic clearance point measures as previously described, but with some modifications [10]. Briefly, after organizing PFAS-level data into a single file, the relationship between the relevant measurement process parameters was described in a graphic model in JAGS language [13] interfaced through R. For hepatic clearance data, the model describes the PFAS-specific mass spectrometric response factor between analyte peak ratio (to internal standard) and chemical concentration. […] The assumed prior for whether the chemical degraded abiotically in vitro followed a Bernoulli distribution with a 5% chance of abiotic degradation. Separate biotic and abiotic components for chemical elimination were estimated, each with a slope following an assumed uniform prior distribution bounded between the zero and the -log (limit of quantitation/Ctest). In scenarios where an external calibration without internal standard was used, the response factor was calculated using the analyte peak alone, introducing additional uncertainty due to the inability to normalize for recovery issues. The model was analyzed jointly by JAGS using five Markov chains. Convergence was identified by requiring the five chains to be consistent, as indicated by the potential scale reduction factor [14] being less than 1.1. The analysis was performed using EPA-developed R package invitroTKstats, available upon request.

| SMILES | CLint for HTTK [1] | in vitro CLint exp assay [1] | Unadj Clint [1] | Css (mg/L) [2] | Css (uM) [2] | CLhep [2] | Fub [2] | CLint [2] | Mean fu (plasma protein) | Clint.1.Med [3] |
| --- | --- | --- | --- | --- | --- | --- | --- | --- | --- | --- |
| O=P(O)(O)CCC(F)(F)C(F)(F)C(F)(F)C(F)(F)C(F)(F)C(F)(F)F [2-(Perfluorohexyl)ethylphosphonic acid] | 0 | 0 | 0.71 | 19.62 mg/L | 45.85 µM | 0.000 L/h | 0.02236 | 0 µL/min | 0.0123 | 0 |
| O=C(O)CCC(F)(F)C(F)(F)C(F)(F)C(F)(F)C(F)(F)F | 11.84 | 11.84 |  | 2.11 mg/L | 6.18 µM | 1.318 L/h | 0.01073 | 2078630 µL/min | 0.0059 | 19 |
| O=C(O)C(F)(F)C(F)(F)C(F)(F)F [Perfluorobutanoic acid (PFBA)] | 0 | 0 |  | 2.60 mg/L | 12.13 µM | 0.000 L/h | 0.1691 | 0 µL/min | 0.093 | 0 |
| O=C([O-])C(F)(F)C(F)(F)C(F)(F)C(F)(F)C(F)(F)C(F)(F)C(F)(F)F.[Na+] [Sodium perfluorooctanoate (NaPFOA)] | 0 | 0 |  | 402.24 mg/L | 971.65 µM | 0.000 L/h | 0.001091 | 0 µL/min | 0.0006 | 0 |
| O=S(=O)(O)CCC(F)(F)C(F)(F)C(F)(F)C(F)(F)C(F)(F)C(F)(F)C(F)(F)C(F)(F)F | 1.53 | 1.53 |  | 1.81 mg/L | 3.42 µM | 1.146 L/h | 0.072 | 268607 µL/min | 0.0396 | 0 |
| O=C(O)C(F)(F)C(F)(F)C(F)(F)C(F)(F)C(F)(F)C(F)(F)C(F)(F)C(F)(F)C(F)(F)C(F)(F)F [Perfluoroundecanoic acid (PFUnDA)] | 0 | 0 |  | 20.81 mg/L | 36.89 µM | 0.000 L/h | 0.02109 | 0 µL/min | 0.0116 | 0 |
| O=C(O)C(F)(F)C(F)(F)C(F)(F)C(F)(F)C(F)(F)C(F)(F)C(F)(F)C(F)F [9-H-Perfluorononanoic acid (9H-PFNA)] | 0 | 0 |  | 268.16 mg/L | 601.28 µM | 0.000 L/h | 0.001636 | 0 µL/min | 0.0009 | 0 |
| O=S(=O)(O)C(F)(F)C(F)(F)OC(F)(F)C(F)(F)F [Perfluoro(2-ethoxyethane)sulfonic acid] | 5.51 | 5.51 | 5.51 | 16.68 mg/L | 52.79 µM | 0.158 L/h | 0.002727 | 967336 µL/min | 0.0015 | 266 |
| O=S(=O)(O)C(F)(F)C(F)(F)C(F)(F)C(F)(F)F [Perfluorobutanesulfonic acid (PFBS)] | 4.75 | 4.75 |  | 2.25 mg/L | 7.51 µM | 1.150 L/h | 0.02327 | 833910 µL/min | 0.0128 | 0 |
| O=C(O)C(F)(F)OC(F)(F)C(F)(F)OC(F)(F)C(F)(F)OC(F)(F)F [Perfluoro-3,6,9-trioxadecanoic acid] | 0 | 0 | 0.00 | 804.48 mg/L | 1952.80 µM | 0.000 L/h | 0.0005455 | 0 µL/min | 0.0003 | 0 |
| O=S(=O)([O-])C(F)(F)C(F)(F)C(F)(F)C(F)(F)F.[K+] | 0 | 0 |  | 52.47 mg/L | 174.92 µM | 0.000 L/h | 0.008364 | 0 µL/min | 0.0046 | 0 |
| O=C(O)C(F)(F)C(F)(F)C(F)(F)C(F)(F)C(F)(F)C(F)(F)F [Perfluoroheptanoic acid (PFHpA)] | 0 | 3.12 |  | 603.36 mg/L | 1657.68 µM | 0.000 L/h | 0.0007273 | 0 µL/min | 0.0004 | 0 |
| O=S(=O)(O)CCC(F)(F)C(F)(F)C(F)(F)C(F)(F)F | 4.28 | 4.28 |  | 6.27 mg/L | 19.12 µM | 0.408 L/h | 0.009091 | 751397 µL/min | 0.005 | 0 |
| O=C(O)C(F)(F)C(F)(F)C(F)(F)C(F)(F)C(F)(F)C(F)(F)C(F)(F)C(F)(F)C(F)(F)C(F)F | 0 | 0 |  | 160.90 mg/L | 294.69 µM | 0.000 L/h | 0.002727 | 0 µL/min | 0.0015 | 0 |
| O=S(=O)(O)CCC(F)(F)C(F)(F)C(F)(F)C(F)(F)C(F)(F)C(F)(F)F | 1.4 | 1.4 |  | 5.29 mg/L | 12.36 µM | 0.382 L/h | 0.026 | 245784 µL/min | 0.0143 | 0 |
| O=C(Cl)C(F)(F)C(F)(F)C(F)(F)C(F)(F)C(F)(F)C(F)(F)F [Perfluoroheptanoyl chloride] |  |  | 0.00 |  |  |  |  |  |  | 0 |
| O=C(O)C(F)(F)OC(F)(F)C(F)(F)OC(F)(F)F | 0 | 0 |  | 77.85 mg/L | 263.04 µM | 0.000 L/h | 0.005636 | 0 µL/min | 0.0031 | 0 |
| O=C(O)C(F)(F)C(F)(F)C(F)(F)C(F)(F)C(F)(F)F [Perfluorohexanoic acid (PFHxA)] | 0 | 1.62 |  | 35.49 mg/L | 113.04 µM | 0.000 L/h | 0.01236 | 0 µL/min | 0.0068 | 0 |
| O=C(O)C(F)(F)C(F)(F)OC(F)(F)F [Perfluoro-3-methoxypropanoic acid] |  |  | 0.00 |  |  |  |  |  |  | 0 |
| O=C([O-])C(F)(F)C(F)(F)C(F)(F)C(F)(F)C(F)(F)C(F)(F)C(F)(F)F.[K+] [Potassium perfluorooctanoate (KPFOA)] | 0 | 0 |  | 134.08 mg/L | 323.88 µM | 0.000 L/h | 0.003273 | 0 µL/min | 0.0018 | 0 |
| O=C(Cl)C(F)(F)C(F)(F)C(F)(F)C(F)(F)C(F)(F)C(F)(F)C(F)(F)F [Pentadecafluorooctanoyl chloride] |  |  | 0.00 |  |  |  |  |  |  | 0 |
| O=C(O)C(F)(F)OC(F)(F)C(F)(F)OC(F)(F)C(F)(F)C(F)(F)C(F)(F)F [Perfluoro-3,6-dioxadecanoic acid] | 0 | 0 | 0.00 | 344.78 mg/L | 773.10 µM | 0.000 L/h | 0.001273 | 0 µL/min | 0.0007 | 0 |
| O=S(=O)(O)C(F)(F)C(F)(F)C(F)(F)C(F)(F)C(F)(F)C(F)(F)C(F)(F)C(F)(F)F [Perfluorooctanesulfonate] |  |  | 0.00 |  |  |  |  |  |  | 0 |
| O=C(O)C(F)(F)C(F)(F)C(F)(F)C(F)(F)C(F)(F)C(F)(F)C(F)(F)C(F)(F)C(F)(F)F [Perfluorodecanoic acid (PFDA)] | 0 | 0 |  | 89.39 mg/L | 173.91 µM | 0.000 L/h | 0.004909 | 0 µL/min | 0.0027 | 0 |
